From patent publication US4806534A, “Therapeutically active flavonyl-1,4-dihydrophyridines” (Recordati S.A., Chemical & Pharmaceutical Company, priority 1985, dated 1989)
Where two headings read alike, the source gives them in different places.

Experiments:
[1] = LD50 acute toxicity in mice, i.p. and p.o. (Weil method); settings: mouse, in vivo
Method: The LD50 of the novel compounds of the invention was determined in mice, both i.p. and p.o., following the method described by C. S. Weil, Biometrics, 8, 249 (1952).

urinary bladder = experiment: Cystometric recordings in conscious rats (urodynamic parameters); type: in vivo; settings: conscious rat, perfusion started 60 min after administration
Method: The activity on the urodynamic parameters was detected by cystometric recordings, carried out in conscious rats, according to the method of […] et al, IRCS Medicinal Science, in press (1986), similar to that described by Sjogren, Acta Pharmacol. Toxicol., 39, 177 (1976). The intravesical pressure was recorded during a continuous infusion of saline (37° C.) into the urinary bladder at the constant rate of 0.15 ml/min. […] The perfusion started 60 minutes after administration of the compound.

Row | SMILES | LD50 ([1]; ip, read-out: LD50 i.p.) | LD50 ([1]; po, read-out: LD50 p.o.) | % Change BVC (bladder volume capacity) (urinary bladder; 10 mg/kg p.o.) | % Change MP (micturition pressure) (urinary bladder; 10 mg/kg p.o.) | % Change BVC (bladder volume capacity) (urinary bladder; 30 mg/kg p.o.) | % Change MP (micturition pressure) (urinary bladder; 30 mg/kg p.o.)
1 | COC(=O)C1=C(C)NC(C)=C(C(=O)OC)C1c1cccc2c(=O)c(C)c(-c3ccccc3)oc12 [i, Dimethyl 2,6-dimethyl-4-(3-methylflavon-8-yl)-1,4-dihydropyridine-3,5-dicarboxylate] | 889 mg/kg | > 3000 mg/kg | +18% | -14% | +21% | -19%
2 | CC1=C(C(=O)OCCCl)C(c2cccc3c(=O)c(C)c(-c4ccccc4)oc23)C(C(=O)OC(C)C)=C(C)N1 (stereo not drawn) [iii, Isopropyl beta-chloroethyl 2,6-dimethyl-4-(3-methylflavon-8-yl)-1,4-dihydropyridine-3,5-dicarboxylate] | > 1000 mg/kg | > 3000 mg/kg |  |  | +15% | -1%
3 | CC1=C(C(=O)OCCN2CCCCC2)C(c2cccc3c(=O)c(C)c(-c4ccccc4)oc23)C(C(=O)OC(C)C)=C(C)N1 (centres unmarked) [iv, Isopropyl 2,N-piperidinoethyl 2,6-dimethyl-4-(3-methylflavon-8-yl)-1,4-dihydropyridine-3,5-dicarboxylate] | 222 mg/kg | > 3000 mg/kg |  |  |  | 
4 | CC1=C(C(=O)OCCN(C)Cc2ccccc2)C(c2cccc3c(=O)c(C)c(-c4ccccc4)oc23)C(C(=O)OC(C)C)=C(C)N1 (centres unmarked) [v, isopropyl 2-(N-benzyl-N-methylamino)ethyl 2,6-dimethyl-4-(3-methylflavon-8-yl)-1,4-dihydropyridine-3,5-dicarboxylate] | 959 mg/kg | > 3000 mg/kg | +19% | -16% | +22% | -23%
5 | CC1=C(C(=O)OCCN(C)CCC(c2ccccc2)c2ccccc2)C(c2cccc3c(=O)c(C)c(-c4ccccc4)oc23)C(C(=O)OC(C)C)=C(C)N1 (centres unmarked) [vi, isopropyl 2-(N-(3,3-diphenylpropyl)-N-methylamino)ethyl 2,6-dimethyl-4-(3-methylflavon-8-yl)-1,4-dihydropyridine-3,5-dicarboxylate] | > 1000 mg/kg | > 3000 mg/kg |  |  | +31% | -1%
6 | CCOC(=O)C1=C(C)NC(C)=C(C(=O)OC)C1c1cccc2c(=O)c(C)c(-c3ccccc3)oc12 (centres unmarked) [viii, Methyl ethyl 2,6-dimethyl-4-(3-methylflavon-8-yl)-1,4-dihydropyridine-3,5-dicarboxylate] | > 1000 mg/kg | > 3000 mg/kg |  |  |  | 
7 | C#CCOC(=O)C1=C(C)NC(C)=C(C(=O)OC)C1c1cccc2c(=O)c(C)c(-c3ccccc3)oc12 (centres unmarked) [xii, Methyl propargyl 2,6-dimethyl-4-(3-methylflavon-8-yl)-1,4-dihydropyridine-3,5-dicarboxylate] | 597 mg/kg | > 3000 mg/kg |  |  |  | 
